Laboratory results from PubChem BioAssay (NCI).
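Step 1: Grow cells in 96-well plates. Step 2: Expose to compound for 48 hours at 5 concentrations. Step 3: Interpolate endpoints linearly; if unreached, use highest concentration. Here, GI50 denotes the concentration required for 50% inhibition of growth. TGI: total growth inhibition.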

What was measured:
Experiment in all cases: NCI anticancer screen, dose series, 48 h
SN12C renal = tested on: SN12C renal
786-0 renal = tested on: 786-0 renal
RXF 393 renal = tested on: RXF 393 renal
HOP-92 NSCLC = tested on: HOP-92 NSCLC
BT-549 breast = tested on: BT-549 breast
KM12 colon = tested on: KM12 colon
SK-MEL-5 melanoma = tested on: SK-MEL-5 melanoma
T-47D breast = tested on: T-47D breast
UO-31 renal = tested on: UO-31 renal
SK-MEL-28 melanoma = tested on: SK-MEL-28 melanoma
ACHN renal = tested on: ACHN renal
OVCAR-4 ovarian = tested on: OVCAR-4 ovarian
CAKI-1 renal = tested on: CAKI-1 renal
HCT-15 colon = tested on: HCT-15 colon
HS 578T breast = tested on: HS 578T breast
SR leukemia = tested on: SR leukemia
LOX IMVI melanoma = tested on: LOX IMVI melanoma
MCF7 breast = tested on: MCF7 breast
A549 NSCLC = tested on: A549 NSCLC
SNB-75 CNS = tested on: SNB-75 CNS
SK-OV-3 ovarian = tested on: SK-OV-3 ovarian
CCRF-CEM leukemia = tested on: CCRF-CEM leukemia
OVCAR-3 ovarian = tested on: OVCAR-3 ovarian
MOLT-4 leukemia = tested on: MOLT-4 leukemia
SF-268 CNS = tested on: SF-268 CNS
RPMI-8226 leukemia = tested on: RPMI-8226 leukemia
HL-60(TB) leukemia = tested on: HL-60(TB) leukemia
EKVX NSCLC = tested on: EKVX NSCLC
OVCAR-8 ovarian = tested on: OVCAR-8 ovarian
HCT-116 colon = tested on: HCT-116 colon
TK-10 renal = tested on: TK-10 renal
SNB-19 CNS = tested on: SNB-19 CNS
NCI/ADR-RES ovarian = tested on: NCI/ADR-RES ovarian
M14 melanoma = tested on: M14 melanoma
A498 renal = tested on: A498 renal
IGROV1 ovarian = tested on: IGROV1 ovarian
OVCAR-5 ovarian = tested on: OVCAR-5 ovarian
PC-3 prostate = tested on: PC-3 prostate
SF-295 CNS = tested on: SF-295 CNS
U251 CNS = tested on: U251 CNS
NCI-H23 lung = tested on: NCI-H23 lung
HOP-62 NSCLC = tested on: HOP-62 NSCLC
MDA-MB-231 breast = tested on: MDA-MB-231 breast
UACC-62 melanoma = tested on: UACC-62 melanoma
SW-620 colon = tested on: SW-620 colon
MDA-MB-435 = tested on: MDA-MB-435
NCI-H460 lung = tested on: NCI-H460 lung
HCC-2998 colon = tested on: HCC-2998 colon
COLO 205 colon = tested on: COLO 205 colon
NCI-H522 lung = tested on: NCI-H522 lung
DU-145 prostate = tested on: DU-145 prostate
HT29 colon = tested on: HT29 colon
MALME-3M melanoma = tested on: MALME-3M melanoma
NCI-H226 lung = tested on: NCI-H226 lung
SF-539 CNS = tested on: SF-539 CNS
UACC-257 melanoma = tested on: UACC-257 melanoma
K-562 leukemia = tested on: K-562 leukemia

CC(=O)O[C@H]1C(=O)[C@@]2(C)[C@H]([C@H](OC(=O)c3ccccc3)[C@]3(O)C[C@H](OC(=O)[C@H](O)[C@@H](NC(=O)c4ccc(N(C)C)cc4)c4ccccc4)C(C)=C1C3(C)C)[C@]1(OC(C)=O)CO[C@@H]1C[C@@H]2O
TGI (SN12C renal): > 50 µM
TGI (786-0 renal): > 50 µM
TGI (RXF 393 renal): 0.226 µM
TGI (HOP-92 NSCLC): > 50 µM
TGI (BT-549 breast): > 50 µM
TGI (KM12 colon): > 50 µM
TGI (SK-MEL-5 melanoma): > 22.1 µM
TGI (T-47D breast): > 50 µM
TGI (UO-31 renal): > 50 µM
TGI (SK-MEL-28 melanoma): > 50 µM
TGI (ACHN renal): > 50 µM
TGI (OVCAR-4 ovarian): > 50 µM
TGI (CAKI-1 renal): > 50 µM
TGI (HCT-15 colon): > 50 µM
TGI (HS 578T breast): 0.00632 µM
TGI (SR leukemia): > 18.5 µM
TGI (LOX IMVI melanoma): > 50 µM
TGI (MCF7 breast): > 50 µM
TGI (A549 NSCLC): > 50 µM
TGI (SNB-75 CNS): > 50 µM
TGI (SK-OV-3 ovarian): > 50 µM
TGI (CCRF-CEM leukemia): 2.34 µM
TGI (OVCAR-3 ovarian): 0.0063 µM
TGI (MOLT-4 leukemia): > 21.9 µM
TGI (SF-268 CNS): > 50 µM
TGI (RPMI-8226 leukemia): 0.00795 µM
TGI (HL-60(TB) leukemia): 0.00566 µM
TGI (EKVX NSCLC): > 50 µM
TGI (OVCAR-8 ovarian): > 50 µM
TGI (HCT-116 colon): > 50 µM
TGI (TK-10 renal): > 45.1 µM
TGI (SNB-19 CNS): > 50 µM
TGI (NCI/ADR-RES ovarian): 16.7 µM
TGI (M14 melanoma): > 50 µM
TGI (A498 renal): > 50 µM
TGI (IGROV1 ovarian): > 50 µM
TGI (OVCAR-5 ovarian): > 50 µM
TGI (PC-3 prostate): > 50 µM
TGI (SF-295 CNS): > 50 µM
TGI (U251 CNS): > 50 µM
TGI (NCI-H23 lung): > 50 µM
TGI (HOP-62 NSCLC): > 50 µM
TGI (MDA-MB-231 breast): > 50 µM
TGI (UACC-62 melanoma): > 50 µM
TGI (SW-620 colon): > 50 µM

Nc1nc2c(ccc3ccccc32)s1
GI50 (SN12C renal): > 100 µM
TGI (SN12C renal): > 100 µM
GI50 (786-0 renal): > 100 µM
TGI (786-0 renal): > 100 µM
GI50 (RXF 393 renal): 37.2 µM
TGI (RXF 393 renal): > 100 µM
GI50 (HOP-92 NSCLC): 19.3 µM
TGI (HOP-92 NSCLC): 85.2 µM
GI50 (BT-549 breast): > 100 µM
TGI (BT-549 breast): > 100 µM
GI50 (KM12 colon): > 100 µM
TGI (KM12 colon): > 100 µM
GI50 (SK-MEL-5 melanoma): 72.7 µM
TGI (SK-MEL-5 melanoma): > 100 µM
GI50 (T-47D breast): 95.5 µM
TGI (T-47D breast): > 100 µM
GI50 (UO-31 renal): 74.3 µM
TGI (UO-31 renal): > 100 µM
GI50 (SK-MEL-28 melanoma): > 100 µM
TGI (SK-MEL-28 melanoma): > 100 µM
GI50 (ACHN renal): > 100 µM
TGI (ACHN renal): > 100 µM
GI50 (OVCAR-4 ovarian): > 100 µM
TGI (OVCAR-4 ovarian): > 100 µM
GI50 (CAKI-1 renal): 26.7 µM
TGI (CAKI-1 renal): 67.5 µM
GI50 (MDA-MB-435): 57.1 µM
TGI (MDA-MB-435): > 100 µM
GI50 (HCT-15 colon): > 100 µM
TGI (HCT-15 colon): > 100 µM
GI50 (HS 578T breast): > 100 µM
TGI (HS 578T breast): > 100 µM
GI50 (NCI-H460 lung): > 100 µM
TGI (NCI-H460 lung): > 100 µM
GI50 (LOX IMVI melanoma): 78.2 µM
TGI (LOX IMVI melanoma): > 100 µM
GI50 (MCF7 breast): 78.7 µM
TGI (MCF7 breast): > 100 µM
GI50 (HCC-2998 colon): 50.6 µM
TGI (HCC-2998 colon): > 100 µM
GI50 (COLO 205 colon): > 100 µM
TGI (COLO 205 colon): > 100 µM
GI50 (A549 NSCLC): > 100 µM
TGI (A549 NSCLC): > 100 µM
GI50 (SNB-75 CNS): 36.8 µM
TGI (SNB-75 CNS): > 100 µM
GI50 (NCI-H522 lung): > 100 µM
TGI (NCI-H522 lung): > 100 µM
GI50 (CCRF-CEM leukemia): 48.1 µM
TGI (CCRF-CEM leukemia): > 100 µM
GI50 (OVCAR-3 ovarian): 43.4 µM
TGI (OVCAR-3 ovarian): > 100 µM
GI50 (DU-145 prostate): > 100 µM
TGI (DU-145 prostate): > 100 µM
GI50 (MOLT-4 leukemia): 12.7 µM
TGI (MOLT-4 leukemia): > 100 µM
GI50 (SF-268 CNS): 33.2 µM
TGI (SF-268 CNS): > 100 µM
GI50 (RPMI-8226 leukemia): 43.8 µM
TGI (RPMI-8226 leukemia): > 100 µM
GI50 (EKVX NSCLC): 40.5 µM
TGI (EKVX NSCLC): > 100 µM
GI50 (OVCAR-8 ovarian): > 100 µM
TGI (OVCAR-8 ovarian): > 100 µM
GI50 (HCT-116 colon): > 100 µM
TGI (HCT-116 colon): > 100 µM
GI50 (HT29 colon): > 100 µM
TGI (HT29 colon): > 100 µM
GI50 (TK-10 renal): 35.2 µM
TGI (TK-10 renal): > 100 µM
GI50 (SNB-19 CNS): > 100 µM
TGI (SNB-19 CNS): > 100 µM
GI50 (NCI/ADR-RES ovarian): > 100 µM
TGI (NCI/ADR-RES ovarian): > 100 µM
GI50 (M14 melanoma): > 100 µM
TGI (M14 melanoma): > 100 µM
GI50 (MALME-3M melanoma): 61.9 µM
TGI (MALME-3M melanoma): > 100 µM
GI50 (A498 renal): 74.1 µM
TGI (A498 renal): > 100 µM
GI50 (NCI-H226 lung): > 100 µM
TGI (NCI-H226 lung): > 100 µM
GI50 (IGROV1 ovarian): > 100 µM
TGI (IGROV1 ovarian): > 100 µM
GI50 (OVCAR-5 ovarian): > 100 µM
TGI (OVCAR-5 ovarian): > 100 µM
GI50 (PC-3 prostate): 33.7 µM
TGI (PC-3 prostate): > 100 µM
GI50 (SF-295 CNS): > 100 µM
TGI (SF-295 CNS): > 100 µM
GI50 (SF-539 CNS): > 100 µM
TGI (SF-539 CNS): > 100 µM
GI50 (UACC-257 melanoma): > 100 µM
TGI (UACC-257 melanoma): > 100 µM
GI50 (U251 CNS): > 100 µM
TGI (U251 CNS): > 100 µM
GI50 (NCI-H23 lung): > 100 µM
TGI (NCI-H23 lung): > 100 µM
GI50 (HOP-62 NSCLC): > 100 µM
TGI (HOP-62 NSCLC): > 100 µM
GI50 (MDA-MB-231 breast): > 100 µM
TGI (MDA-MB-231 breast): > 100 µM
GI50 (UACC-62 melanoma): 75.8 µM
TGI (UACC-62 melanoma): > 100 µM
GI50 (K-562 leukemia): 91.5 µM
TGI (K-562 leukemia): > 100 µM
GI50 (SW-620 colon): > 100 µM
TGI (SW-620 colon): > 100 µM

Cc1nc(Nc2ccc(Cl)c(Cl)c2)sc1C(=O)/C=C/c1ccc2c(c1)OCO2
TGI (786-0 renal): 38.4 µM
TGI (RXF 393 renal): 29.3 µM
TGI (BT-549 breast): 46.1 µM
TGI (KM12 colon): 50 µM
TGI (SK-MEL-5 melanoma): 97.4 µM
TGI (T-47D breast): > 100 µM
TGI (UO-31 renal): 33.7 µM
TGI (SK-MEL-28 melanoma): 86.9 µM
TGI (ACHN renal): 45.1 µM
TGI (OVCAR-4 ovarian): 33.9 µM
TGI (CAKI-1 renal): 32.6 µM
TGI (MDA-MB-435): 48.4 µM
TGI (NCI-H460 lung): > 100 µM
TGI (LOX IMVI melanoma): 35.3 µM
TGI (MCF7 breast): > 100 µM
TGI (HCC-2998 colon): 88.1 µM
TGI (COLO 205 colon): 60.6 µM
TGI (A549 NSCLC): 48.5 µM
TGI (SNB-75 CNS): 31.4 µM
TGI (SK-OV-3 ovarian): 33.6 µM
TGI (CCRF-CEM leukemia): > 100 µM
TGI (OVCAR-3 ovarian): 30 µM
TGI (MOLT-4 leukemia): 44.1 µM
TGI (SF-268 CNS): 64 µM
TGI (RPMI-8226 leukemia): 45.9 µM
TGI (HL-60(TB) leukemia): 43.4 µM
TGI (EKVX NSCLC): 87.2 µM
TGI (OVCAR-8 ovarian): 49.6 µM
TGI (HCT-116 colon): 49.4 µM
TGI (HT29 colon): > 100 µM
TGI (TK-10 renal): 53.6 µM
TGI (SNB-19 CNS): 51.9 µM
TGI (NCI/ADR-RES ovarian): > 100 µM
TGI (MALME-3M melanoma): > 100 µM
TGI (A498 renal): 47.8 µM
TGI (NCI-H226 lung): 62 µM
TGI (IGROV1 ovarian): > 100 µM
TGI (OVCAR-5 ovarian): > 100 µM
TGI (SF-295 CNS): 45.6 µM
TGI (SF-539 CNS): 61.7 µM
TGI (UACC-257 melanoma): > 100 µM
TGI (U251 CNS): 49 µM
TGI (NCI-H23 lung): 49.5 µM
TGI (HOP-62 NSCLC): 36.5 µM
TGI (UACC-62 melanoma): > 100 µM
TGI (K-562 leukemia): 89.9 µM
TGI (SW-620 colon): > 100 µM
